According to the NIST ThermoML archive (doi:10.1016/j.fluid.2018.05.033):

What was measured:
[1] = refractive index (Na D-line) (dimensionless); settings: 101.33 kPa, Liquid, Standard Abbe refractometry
[2] = for mass density: 101.33 kPa, Liquid, Vibrating tube method; for Normal melting temperature: Crystal, Phase equilibration
[3] = refractive index (Na D-line) (dimensionless); xn = mol fraction of the nth substance listed; settings: 101.3 kPa, Liquid, Standard Abbe refractometry
[4] = xn = mol fraction of the nth substance listed; settings: 101.3 kPa, Liquid, Vibrating tube method

O=S1OCCO1 [1,3,2-dioxathiolane, 2-oxide]
298.15 K
Settings | mass density [kg/m3] | refractive index
[1] | – | 1.4449
[2] | 1432.17 | –

Settings | Normal melting temperature [°C]
[2] | -17.01

O=C1OCCO1 [ethylene carbonate]
318.15 K
Settings | mass density [kg/m3] | refractive index
[1] | – | 1.4172
[2] | 1315.7 | –

Settings | Normal melting temperature [°C]
[2] | 37.41

O=S1OCCO1 [1,3,2-dioxathiolane, 2-oxide] + CCOC(=O)OC
298.15 K
Settings | mass density, [4] [kg/m3] | refractive index, [3]
x2 = 0.0498 | 1404.65 | 1.4405
x2 = 0.0994 | 1378 | 1.4361
x2 = 0.1993 | 1326.76 | 1.4279
x2 = 0.2998 | 1278.43 | 1.42
x2 = 0.3996 | 1233.17 | 1.4127
x2 = 0.5008 | 1189.88 | 1.4056
x2 = 0.5995 | 1149.94 | 1.3991
x2 = 0.7001 | 1111.21 | 1.3927
x2 = 0.8002 | 1074.73 | 1.3867
x2 = 0.8995 | 1040.17 | 1.381
x2 = 0.9501 | 1023.08 | 1.3782

COC(=O)OC [dimethyl carbonate]
298.15 K
Settings | mass density [kg/m3] | refractive index
[1] | – | 1.3662
[2] | 1060.87 | –

Settings | Normal melting temperature [°C]
[2] | 4.37

O=C1CCCO1 [γ-butyrolactone]
298.15 K
Settings | mass density [kg/m3] | refractive index
[1] | – | 1.4349
[2] | 1124.97 | –

Settings | Normal melting temperature [°C]
[2] | -41.87

O=S1OCCO1 [1,3,2-dioxathiolane, 2-oxide] + O=C1CCCO1
298.15 K
Settings | mass density, [4] [kg/m3] | refractive index, [3]
x2 = 0.0501 | 1417.36 | 1.4443
x2 = 0.1008 | 1401.19 | 1.4437
x2 = 0.2006 | 1369.54 | 1.4425
x2 = 0.2991 | 1338.59 | 1.4414
x2 = 0.4102 | 1303.97 | 1.4402
x2 = 0.4994 | 1276.38 | 1.4392
x2 = 0.5998 | 1245.54 | 1.4382
x2 = 0.701 | 1214.73 | 1.4373
x2 = 0.7995 | 1184.91 | 1.4365
x2 = 0.9002 | 1154.7 | 1.4356
x2 = 0.9495 | 1139.97 | 1.4353

O=S1OCCO1 [1,3,2-dioxathiolane, 2-oxide] + COC(=O)OC
298.15 K
Settings | mass density, [4] [kg/m3] | refractive index, [3]
x2 = 0.0499 | 1412.39 | 1.4407
x2 = 0.0997 | 1392.6 | 1.4365
x2 = 0.2002 | 1353.25 | 1.4283
x2 = 0.2999 | 1314.96 | 1.4202
x2 = 0.4 | 1277.01 | 1.4123
x2 = 0.4997 | 1239.88 | 1.4044
x2 = 0.6004 | 1202.89 | 1.3965
x2 = 0.6998 | 1166.91 | 1.3889
x2 = 0.8009 | 1130.5 | 1.3811
x2 = 0.9002 | 1095.66 | 1.3737
x2 = 0.9505 | 1078.06 | 1.37

CCOC(=O)OC [ethyl methyl carbonate]
298.15 K
Settings | mass density [kg/m3] | refractive index
[1] | – | 1.3754
[2] | 1006.88 | –

Settings | Normal melting temperature [°C]
[2] | -51.47

O=S1OCCO1 [1,3,2-dioxathiolane, 2-oxide] + O=C1OCCO1
318.15 K
Settings | mass density, [4] [kg/m3] | refractive index, [3]
x2 = 0.0492 | 1403.48 | 1.4358
x2 = 0.0998 | 1399.66 | 1.435
x2 = 0.2011 | 1391.76 | 1.4333
x2 = 0.3 | 1383.61 | 1.4315
x2 = 0.4024 | 1374.81 | 1.4297
x2 = 0.5005 | 1366.04 | 1.4278
x2 = 0.5994 | 1356.86 | 1.4259
x2 = 0.6997 | 1347.14 | 1.4238
x2 = 0.8005 | 1337 | 1.4217
x2 = 0.8996 | 1326.62 | 1.4196
x2 = 0.9494 | 1321.21 | 1.4185
